Patent US12534456B2, “Heterocyclyl pyridines as novel fungicides” (Bayer Aktiengesellschaft, priority 2020, dated 2026)

experiment: physchem; format: physicochemical; details: not given
Method: Measurement of Log P values as provided herein was performed according to EEC directive 79/831 Annex V.A8 by HPLC (High Performance Liquid Chromatography) on reversed phase columns with the following methods: • ^[a]
If more than one Log P value is available within the same method, all the values are given and separated by “+”.
Lambda-max-values were determined using UV-spectra from 200 nm to 400 nm and the peak values of the chromatographic signals

SMILES	LogP
COc1cc(C(=O)NC(CCl)Cc2ccc(C)cc2C)c(Oc2cccc(C(F)(F)F)c2)cn1 (centres unmarked) [14-05]	5.26^[a]
COc1cccc(Oc2cnc(Cl)cc2C(=O)NC(CON2C(=O)c3ccccc3C2=O)Cc2ccc(C)cc2C)c1 (centres unmarked) [3-09]	4.80^[a]
CC(=O)c1cc(C(=O)O)c(Oc2cccc(C(F)(F)F)c2)cn1 [Compound 1-02]	2.54^[a]
Cc1ccc(CC2CON=C(c3cc(Cl)ncc3Oc3ccc(OC(F)(F)F)cc3)N2)c(C)c1 (racemic) [Compound I-120]	4.76^[a]
Cc1cccc(Oc2cnc(Cl)cc2C2=NOCC(Cc3ccc(Cl)cc3Cl)N2)c1F (centres unmarked) [Compound I-135]	4.75^[a]
Cc1ccc(CC(CCl)NC(=O)c2c(Oc3cccc(C(F)(F)F)c3)cnc(Cl)c2I)c(C)c1 (centres unmarked) [14-04]	5.18^[a]
Cc1ccc(CC(CON)NC(=O)c2cc(Cl)ncc2Oc2cccc(C(F)F)c2)c(C)c1 (centres unmarked) [4-11]	3.09^[a]
Cc1ccc(CC(CCl)NC(=O)c2cc(Cl)nc(Cl)c2Oc2cccc(C(F)(F)F)c2)c(C)c1 (centres unmarked) [14-07]	5.45^[a]
Cc1cc(Br)ccc1CC1CON=C(c2cc(Cl)ncc2Oc2cccc(C(F)(F)F)c2)N1 (centres unmarked) [Compound I-158]	4.81^[a]
CCc1cccc(Oc2cnc(Cl)cc2C2=NOCC(Cc3ccc(Cl)cc3Cl)N2)c1F (centres unmarked) [Compound I-141]	5.16^[a]
Cc1ccc(CC2CON=C(c3cc(Cl)ncc3Oc3cccc(C4CC4)c3F)N2)c(C)c1 (single isomer, unassigned) [Compound I-022]	4.93^[a]
CC1(C)ON=C(c2cc(Cl)ncc2Oc2cccc(C(F)(F)F)c2)NC1c1ccc(F)cc1F (racemic) [Compound I-043]	4.30^[a]
Cc1ccc(CC2CON=C(c3cc(C)ncc3Oc3cccc(C4CC4)c3F)N2)c(C)c1 (racemic) [Compound I-017]	4.03^[a]
Cc1cccc(CC2CON=C(c3cc(Cl)ncc3Oc3cccc(Cl)c3F)N2)c1Cl (centres unmarked) [Compound I-151]	4.62^[a]
COc1cc(C2=NOCC(Cc3ccc(C)cc3Cl)N2)c(Oc2cccc(Cl)c2F)cn1 (racemic) [Compound I-067]	4.51^[a]
FC(F)(F)c1cccc(Oc2cnc(Cl)cc2C2=NOCC(c3ccc(Cl)cc3)N2)c1 (racemic) [Compound I-050]	3.99^[a]
Fc1cccc(Oc2cnc(Cl)cc2C2=NOCC(Cc3ccc(Cl)cc3Cl)N2)c1F (racemic) [Compound I-071]	4.40^[a]
Cc1cc(Br)ccc1CC(CCl)NC(=O)c1cc(Cl)ncc1Oc1cccc(C(F)(F)F)c1 (centres unmarked) [14-08]	5.31^[a]
Clc1ccc(CC2CON=C(c3cc(Cl)ncc3Oc3ccc4c(c3)CCO4)N2)c(Cl)c1 (centres unmarked) [Compound I-130]	4.30^[a]

SMILES	LogP
Cc1ccc(C2CON=C(c3cc(Cl)ncc3Oc3cccc(C(F)(F)F)c3)N2)cc1 (racemic) [Compound I-048]	3.96^[a]
O=C(NC(CON1C(=O)c2ccccc2C1=O)Cc1ccc(Cl)cc1Cl)c1cc(Cl)ncc1Oc1cccc(C2CC2)c1F (centres unmarked) [3-04]	5.54^[a]
Cc1cccc(Oc2cnc(Cl)cc2C(=O)O)c1 [Compound 1-08]	2.60^[a]
CCC1ON=C(c2cc(Cl)ncc2Oc2cccc(C(F)(F)F)c2)NC1c1ccc(OC)cc1 (mixture of isomers) [Compound I-122]	4.07^[a]
Cc1ccc(CC2CON=C(c3cc(Cl)ncc3Br)N2)c(C)c1 (centres unmarked) [7-01]	3.31^[a]
CC(=O)c1cccc(Oc2cnc(Cl)cc2C2=NOCC(Cc3ccc(C)cc3C)N2)c1 (racemic) [Compound I-117]	3.70^[a]
Cc1ccc(CC2CN(C=O)N=C(c3cc(Cl)ncc3Oc3cccc(C(F)(F)F)c3)N2)c(C)c1 (racemic) [Compound I-094]	4.49^[a]
Cc1ccc(CC(CCl)NC(=NO)c2cc(Cl)ncc2Oc2cccc(C(F)(F)F)c2)c(C)c1 (centres unmarked) [16-03]	4.80^[a]
Cc1ccc(CC(CON)NC(=O)c2cc(Cl)ncc2Oc2cccc(Cl)c2)c(C)c1 (centres unmarked) [4-12]	3.35^[a]
FC(F)(F)c1cncc(Oc2cnc(Cl)cc2C2=NOCC(Cc3ccc(Cl)cc3Cl)N2)c1 (racemic) [Compound I-125]	3.71^[a]
Cc1ccc(CC2CON=C(c3cc(Cl)ncc3Oc3cccc(C4CC4)c3)N2)c(C)c1 (single isomer, unassigned) [Compound I-019]	4.89^[a]
CSc1cccc(Oc2cnc(Cl)cc2C2=NOCC(Cc3ccc(C)cc3C)N2)c1F (centres unmarked) [Compound I-154]	4.47^[a]
Cc1ccc(CC2CON=C(c3cc(Cl)ncc3Oc3cccc(C4CC4)c3F)N2)c(C)c1 (racemic) [Compound I-014]	4.89^[a]
COc1cc(C(=O)O)c(Oc2cccc(C(F)(F)F)c2)cn1 [Compound 1-15]	2.86^[a]
FC(F)(F)c1cccc(Oc2cnc(Cl)cc2C2=NOCC(Cc3cc(Cl)sc3Cl)N2)c1 (centres unmarked) [Compound I-145]	4.83^[a]
Cc1ccc(CC(CCN)NC(=O)c2cc(Cl)ncc2Oc2cccc(C(F)(F)F)c2)c(C)c1 (centres unmarked) [4-13]	2.41^[a]
Cc1ccc(CC2CON=C(c3cc(Cl)ncc3Oc3cnc4ccccc4c3)N2)c(C)c1 (racemic) [Compound I-093]	3.65^[a]
Cc1ccc(CC2CON=C(c3cc(Cl)ncc3Oc3cccc(Cl)c3)N2)c(C)c1 (single isomer, unassigned) [Compound I-012]	4.53^[a]
COc1cc(C(=O)NC(CCl)Cc2ccc(C)cc2Cl)c(Br)cn1 (centres unmarked) [17-03]	3.94^[a]

SMILES	LogP
Cc1ccc(CC2CON=C(c3c(Oc4cccc(C(F)(F)F)c4)cnc(Cl)c3I)N2)c(C)c1 (centres unmarked) [Compound I-077]	4.66^[a]
Cc1ccc(CC(CCl)NC(=O)c2cc(Cl)ncc2Br)c(Cl)c1 (centres unmarked) [17-02]	3.94^[a]
O=C(NC(CCl)Cc1csc(C(F)(F)F)c1)c1cc(Cl)ncc1Oc1cccc(C(F)(F)F)c1 (centres unmarked) [14-10]	4.96^[a]
FC(F)(F)Oc1cccc(Oc2cnc(Cl)cc2C2=NOCC(Cc3ccc(Cl)cc3Cl)N2)c1 (centres unmarked) [Compound I-148]	4.88^[a]
Cc1ccc(CC2CON=C(c3cc(C)ncc3Oc3cccc(Cl)c3F)N2)c(Cl)c1 (racemic) [Compound I-069]	4.07^[a]
FC(F)(F)c1cccc(Oc2cnc(Cl)cc2C2=NOCC(Cc3csc(Cl)c3)N2)c1 (centres unmarked) [Compound I-138]	4.38^[a]
Cc1ccc(CC2CON=C(c3cc(Cl)ncc3Oc3cccc(C=O)c3)N2)c(C)c1 (racemic) [Compound I-085]	3.64^[a]
Cc1ccc(CC2CON=C(c3cc(Cl)ncc3Oc3cccc(S(C)(=O)=O)c3)N2)c(C)c1 (racemic) [Compound I-095]	3.25^[a]
Cc1ccc(CC2CON=C(c3cc(Cl)ncc3Oc3cccc(-c4ccccn4)c3)N2)c(C)c1 (racemic) [Compound I-089]	3.87^[a]
COCc1cccc(Oc2cnc(Cl)cc2C2=NOCC(Cc3ccc(C)cc3C)N2)c1 (centres unmarked) [Compound I-153]	4.10^[a]
Cc1ccc(CC2CON=C(c3c(Oc4cccc(C(F)(F)F)c4)cnc(Cl)c3-c3ccccc3)N2)c(C)c1 (centres unmarked) [Compound I-133]	5.04^[a]
C=Cc1cc(C2=NOCC(Cc3ccc(C)cc3)N2)c(Oc2cccc(C(F)(F)F)c2)cn1 (racemic) [Compound I-059]	4.19^[a]
Fc1c(Cl)cccc1Oc1cnc(Cl)cc1C1=NOCC(Cc2ccc(Cl)cc2Cl)N1 (racemic) [Compound I-102]	4.71^[a]
Cc1ccc(CC2CON=C(c3cc(Cl)ncc3Oc3ccc4ccsc4c3)N2)c(C)c1 (racemic) [Compound I-119]	4.59^[a]
Cc1ccc(CC2CON=C(c3cc(Cl)nc(F)c3Oc3cccc(C(F)(F)F)c3)N2)c(C)c1 (racemic) [Compound I-082]	4.97^[a]
O=C(O)c1c(Oc2cccc(C(F)(F)F)c2)cnc(Cl)c1I [Compound 1-17]	2.49^[a]
Cc1ccc(CC2CN=C(c3cc(Cl)ncc3Oc3cccc(C(F)(F)F)c3)N2)c(C)c1 (racemic) [Compound I-081]	2.64^[a]
Cc1ccc(CC2CON=C(c3cc(Cl)ncc3Oc3cccc(Cl)c3)N2)c(C)c1 (single isomer, unassigned) [Compound I-011]	4.53^[a]
Cc1ccc(CC2CON=C(c3cc(C#C[Si](C)(C)C)ncc3Oc3cccc(C(F)(F)F)c3)N2)cc1 (racemic) [Compound I-060]	5.53^[a]

same assay, conditions: Table 7, compounds of formula (3); method [a]

SMILES	chromatographic logP
Cc1ccc(CC(CON2C(=O)c3ccccc3C2=O)NC(=O)c2cc(Cl)ncc2Oc2cccc(C(F)(F)F)c2)c(C)c1 (racemic) [Compound 3-01, 2-chloro-N-{(2RS)-1-(2,4-dimethylphenyl)-3-[(1,3-dioxo-1,3-dihydro-2H-isoindol-2-yl)oxy]propan-2-yl}-5-[3-(trifluoromethyl)phenoxy]isonicotinamide]	5.14

same assay, conditions: Table 9, compounds of formula (4a)/(4b); method [a]

SMILES	chromatographic logP
Cc1ccc(CC(CON)NC(=O)c2cc(Cl)ncc2Oc2cccc(C(F)(F)F)c2)c(C)c1 (racemic) [Compound 4-01, N-[(2RS)-1-(aminooxy)-3-(2,4-dimethylphenyl)propan-2-yl]-2-chloro-5-[3-(trifluoromethyl)phenoxy]isonicotinamide]	3.48

same assay, conditions: Table 11, compounds of formula (6); method [a]: LC-UV, acidic range, 0.1% formic acid in water and acetonitrile

SMILES	chromatographic logP
Cc1ccc(CC(CON2C(=O)c3ccccc3C2=O)NC(=O)c2cc(C(F)(F)F)ncc2Br)c(C)c1 (racemic) [Compound 6-04, 5-bromo-N-{(2RS)-1-(2,4-dimethylphenyl)-3-[(1,3-dioxo-1,3-dihydro-2H-isoindol-2-yl)oxy]propan-2-yl}-2-(trifluoromethyl)isonicotinamide]	4.4

same assay, conditions: Table 13, compounds of formula (7); method [a]

SMILES	chromatographic logP
Cc1ccc(CC2CON=C(c3ccncc3Br)N2)cc1 (racemic) [Compound 7-02, (5RS)-3-(3-bromopyridin-4-yl)-5-(4-methylbenzyl)-5,6-dihydro-4H-1,2,4-oxadiazine]	2.31

same assay, conditions: Table 22, compounds of formula (17); method [a]

SMILES	chromatographic logP
Cc1ccc(CC(CCl)NC(=O)c2ccncc2Br)cc1 (racemic) [Compound 17-01, 3-bromo-N-[(2RS)-1-chloro-3-(4-methylphenyl)propan-2-yl]isonicotinamide]	2.8
